Measured values taken from US5498710A, “Alkyl ether analogues of benzoporphyrin derivatives” (Health Research, Inc., priority 1994, dated 1996).
Entries after “also recorded” stand apart in the source; their conditions may differ.

Legend:
[1] = system: SMT-F tumor; assay: In vivo antitumor (photodynamic) activity, SMT-F tumors in DBA/2 mice; design: species or system DBA/2 Ha-DD mouse; settings: for tumorcidal activity: similar doses and treatment conditions; for Tumor response (nonpalpable tumor), 1-2 d / Tumor response (nonpalpable tumor), 7 d / Tumor response (nonpalpable tumor), 30 d: 1.0 mg/kg i.v., light 3 h after injection; for Tumor response (nonpalpable tumor), 1-2 d: day 1-2; for Tumor response (nonpalpable tumor), 7 d: day 7; for Tumor response (nonpalpable tumor), 30 d: day 30; for antitumor / photosensitizing activity: 1.0 mg/kg, light 3 h post i.v. injection where stated; for in vivo photosensitizing efficacy / antitumor activity compared with BPD: mice, compared with BPD (mixture of 21 and 22)
Procedure: Tumor Response and Foot Response Experiments: For tumor response experiments (see Table 3), a 1mm^3 piece of SMT-F tumor from a donor DBA/2 Ha-DD mouse was implanted subcutaneously with a trocar into the axilla of a 5-7 week old female DBA/2 Ha-DD mouse. When the tumor had grown to about 4mm diameter, mice were injected intravenously (i.v.) with photosensitizers at various doses. At various time after injection, mice were restrained in Plexiglas® holders and each tumor was illuminated with 135 J/cm^2 light from a dye laser 171 (spectra physics). The light dose rate was 75 mW/cm^2 as measured with a PTR Optics […]. The percentage of short term control (non-palpable tumors) was recorded daily. For our study 6 mice/group were used.
(§1) In vivo Biological Activity: The in vivo photosensitizing ability of all the sensitizers was compared with that of commercial BPD in DBA/2 mice bearing subcutaneously implanted SMT-F tumors, a method previously described by Dougherty et al. All photosensitizers, including commercial BPD (mixture of 21 and 22) were first dissolved in a minimum quantity of Tween 80 and then diluted with 0.9% saline, to a final concentration of 1% Tween 80.
(§2) It can be seen from Table 3 that commercial BPD was quite effective at a dose of 5.0 mg/kg, 3 h post i.v. injection (4 out of six mice were tumor free at day 30). […] However, replacement of the vinyl with a 1-hexyloxyethyl group induced a remarkable difference in photosensitizing activity.

[2] = system: SMT-F tumor; assay: as above; design: species or system DBA/2 Ha-DD mouse; settings: 5.0 mg/kg i.v., light 24 h after injection
[3] = Electronic absorption, red absorption maximum; assay type: physicochemical; settings: for red shift in the absorption spectra: electron-withdrawing groups on macrocycle; for strong absorption in the red: formyl-BPDs
Procedure: M.p.s were measured on a Thomas/Bristoline microscopic hot stage apparatus and were uncorrected. Silica gel 60 (70-230 and 230-400 mesh, Merck) or neutral alumina (Merck; usually Brockmann Grade III, i. e., deactivated with 6% water) were used for column chromatography. Preparative thin layer chromatography was carried out on 20×20 cm glass plates coated with Merck G 254 silica gel (1 mm thick). Analytical thin layer chromatography (TLC) was performed using merck 60 F254 silica gel (precoated sheets, 0.2 mm thick). Reactions were monitored by TLC and spectrophotometry and were carried out under nitrogen and in the dark. ^1 HNMR spectra were obtained in deuteriochloroform solution at 300 MHz using a General Electric QE300 spectrometer; chemical shifts are expressed in ppm relative to chloroform (7.258 ppm). Elemental analyses were performed at the Midwest Microlab, Ltd., Indiana, USA. Unless stated otherwise, electronic absorption spectra were measured in dichloromethane solution using a Hewlett-Packard 8450A spectrophotometer. Mass spectra were obtained at the Mass Spectrometry Facility, University of California, San Francisco and at the Department of Biophysics, Roswell Park Cancer Institute, Buffalo.

[4] = Solubility of photosensitizers; assay type: physicochemical; settings: Tween 80, then 0.9% saline (1% Tween 80)
From the text: as §1, §2

Row | Compound | tumorcidal activity [1] | antitumor / photosensitizing activity [1] | in vivo photosensitizing efficacy / antitumor activity compared with BPD [1] | other results
1 | CCC1=C(C)c2cc3[nH]c(cc4nc(cc5[nH]c(cc1n2)c(C)c5CCC(=O)OC)C(CCC(=O)OC)=C4C)C1(C)C3=CC=C(C(=O)OC)C1C(=O)OC (stereo not drawn) [Compound 25, 8-Ethylbenzoporphyrin Derivative] | did not show any significant tumorcidal activity |  |  | 
2 | 3-(1-Hexyloxyethyl)benzoporphyrin Derivative [Compound 45] |  | active | significantly more active than the industrially prepared benzoporphyrin derivative; also recorded: better photosensitizing efficacy than benzoporphyrin derivative monocarboxylic acid; also recorded: better anti-tumor activity than BPD-MA | Tumor response (nonpalpable tumor), 1-2 d [1]: 6/6; Tumor response (nonpalpable tumor), 7 d [1]: 4/6; Tumor response (nonpalpable tumor), 30 d [1]: 0/6; Tumor response (nonpalpable tumor), 1-2 d ([2]; day 1-2): 6/6; Tumor response (nonpalpable tumor), 7 d ([2]; day 7): 6/6; Tumor response (nonpalpable tumor), 30 d ([2]; day 30): 0/6
3 | C=CC1=C(C)c2cc3[nH]c(cc4nc(cc5[nH]c(cc1n2)C1(C)C5=CC=C(C(=O)OC)C1C(=O)OC)C(C)=C4CCC(=O)OC)c(CCC(=O)OC)c3C (stereo not drawn) [Compound 28, 3-Vinylbenzoporphyrin Derivative] |  | activity similar to BPD |  | 
4 | C=CC1=C(C)c2cc3[nH]c(cc4nc(cc5[nH]c(cc1n2)C1(C)C5=CC=C(C(=O)OC)C1C(=O)OC)C(C)=C4CCC(=O)OC)c(CCC(=O)OC)c3C (stereo not drawn) [Compound 41, 3-Vinyl-BPD] |  | activity similar to BPD |  | 
5 | COC(=O)CCC1=C(C)c2cc3[nH]c(cc4nc(cc5[nH]c(cc1n2)c(CCC(=O)OC)c5C)C(C)=C4C(C)=O)C1(C)C3=CC=C(C(=O)OC)C1C(=O)OC (stereo not drawn) [Compound 42, 3 -Acetylbenzoporphyrin Derivative] |  | inactive | failed to improve their photosensitizing efficacy | red shift in the absorption spectra [3]: significant red shift in the absorption spectra; ease of dissolution [4]: difficult to dissolve
6 | 3-(1-Hexyloxyethyl)benzoporphyrin Derivative [Compound 35] |  | active; also recorded: good antitumor activity | significantly more active than the industrially prepared benzoporphyrin derivative; also recorded: better photosensitizing efficacy than benzoporphyrin derivative monocarboxylic acid; also recorded: better anti-tumor activity than BPD-MA | Tumor response (nonpalpable tumor), 1-2 d [1]: 6/6; Tumor response (nonpalpable tumor), 7 d [1]: 6/6; Tumor response (nonpalpable tumor), 30 d [1]: 2/6
7 | C=CC1=C(C)c2cc3[nH]c(cc4nc(cc5[nH]c(cc1n2)c(C)c5CCC(=O)OC)C(CCC(=O)OC)=C4C)C1(C)C3=CC=C(C(=O)OC)C1C(=O)OC (stereo not drawn) [Compound 20, 8-vinylbenzoporphyrin Derivative] |  | activity similar to BPD |  | 
8 | COC(=O)CCC1=C(C)c2cc3[nH]c(cc4nc(cc5[nH]c(cc1n2)c(CCC(=O)OC)c5C)C(C)=C4C=O)C1(C)C3=CC=C(C(=O)OC)C1C(=O)OC (stereo not drawn) [Compound 34, 3-Formylbenzoporphyrin Derivative] | did not show any significant tumorcidal activity |  |  | strong absorption in the red [3]: 696 nm
9 | COC(=O)CCC1=C(C)c2cc3[nH]c(cc4nc(cc5[nH]c(cc1n2)c(CCC(=O)OC)c5C)C(C=O)=C4C)C1=CC=C(C(=O)OC)C(C(=O)OC)C13C (stereo not drawn) [Compound 26, 8-Formylbenzoporphyrin Derivative] | did not show any significant tumorcidal activity |  |  | strong absorption in the red [3]: 696 nm
10 | COC(=O)CCC1=C(C)c2cc3[nH]c(cc4nc(cc5[nH]c(cc1n2)c(CCC(=O)OC)c5C)C(C(C)=O)=C4C)C1=CC=C(C(=O)OC)C(C(=O)OC)C13C (stereo not drawn) [Compound 37, 8-Acetylbenzoporphyrin Derivative] |  | inactive | failed to improve their photosensitizing efficacy | red shift in the absorption spectra [3]: significant red shift in the absorption spectra; ease of dissolution [4]: difficult to dissolve
11 | CCC1=C(C)c2cc3[nH]c(cc4nc(cc5[nH]c(cc1n2)C1(C)C5=CC=C(C(=O)OC)C1C(=O)OC)C(C)=C4CCC(=O)OC)c(CCC(=O)OC)c3C (stereo not drawn) [Compound 33, 2-Ethylbenzoporphyrin Derivative] | did not show any significant tumorcidal activity |  |  | 
12 | COC(=O)CCC1=C(C)c2cc3[nH]c(cc4nc(cc5[nH]c(cc1n2)c(CCC(=O)OC)c5C)C(C)=C4C(C)=O)C1(C)C3=CC=C(C(=O)OC)C1C(=O)OC (stereo not drawn) [Compound 31, 3 -Acetylbenzoporphyrin Derivative] | did not show any significant tumorcidal activity | inactive | failed to improve their photosensitizing efficacy | red shift in the absorption spectra [3]: significant red shift in the absorption spectra; ease of dissolution [4]: difficult to dissolve
13 | CCCCCCOC(C)C1=C(C)c2cc3[nH]c(cc4nc(cc5[nH]c(cc1n2)c(C)c5CCC(=O)OC)C(CCC(=O)OC)=C4C)C1(C)C3=CC=C(C(=O)OC)C1C(=O)OC (mixture of isomers) [Compound 27, 8-(1-Hexyloxyethyl)benzoporphyrin Derivative] |  | active; also recorded: good antitumor activity | significantly more active than the industrially prepared benzoporphyrin derivative; also recorded: better photosensitizing efficacy than benzoporphyrin derivative monocarboxylic acid; also recorded: better anti-tumor activity than BPD-MA | Tumor response (nonpalpable tumor), 1-2 d [1]: 6/6; Tumor response (nonpalpable tumor), 7 d [1]: 4/6; Tumor response (nonpalpable tumor), 30 d [1]: 1/6; absorption maximum wavelength ([3]; maximum red absorption peak, Table 3): 676 nm
14 | COC(=O)CCC1=C(C)c2cc3[nH]c(cc4nc(cc5[nH]c(cc1n2)c(CCC(=O)OC)c5C)C(C(C)=O)=C4C)C1=CC=C(C(=O)OC)C(C(=O)OC)C13C (stereo not drawn) [Compound 23, 8-Acetylbenzoporphyrin Derivative] | did not show any significant tumorcidal activity | inactive | failed to improve their photosensitizing efficacy | red shift in the absorption spectra [3]: significant red shift in the absorption spectra; ease of dissolution [4]: difficult to dissolve
15 | COC(=O)CCC1=C(C)c2cc3[nH]c(cc4nc(cc5[nH]c(cc1n2)c(CCC(=O)OC)c5C)C(C=CC(C)C1=C(C)c2cc5[nH]c(cc6nc(cc7[nH]c(cc1n2)c(C)c7CCC(=O)OC)C(CCC(=O)OC)=C6C)C1(C)C5=CC=C(C(=O)OC)C1C(=O)OC)=C4C)C1=CC=C(C(=O)OC)C(C(=O)OC)C13C (mixture of isomers) [Compound 46, Bis-Benzoporphyrin] | did not show any significant tumorcidal activity |  |  | 
16 | C=CC1=C(C)c2cc3[nH]c(cc4nc(cc5[nH]c(cc1n2)c(C)c5CCC(=O)OC)C(CCC(=O)OC)=C4C)C1(C)C3=CC=C(C(=O)OC)C1C(=O)OC (stereo not drawn) [Compound 36, 8-Vinylbenzoporphyrin Derivative] |  | activity similar to BPD |  | 
